Assay [1] deals with GA-10 (Burkitt's Lymphoma). Briefly: combination Emax (second highest fraction inhibited in the dose matrix, 72 h); higher = more inhibition; extreme values may be limits of the assay. In a few lines: (§1)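 After 24 hours at 37°C and 5% CO2 in 1536-well plates, cells in DMEM/F12 or RPMI plus 10% FBS received two-drug dose matrices for 72 hours. Viability came from CellTiter-Glo 2.0 luminescence and was scaled as inhibition, anchored at 0 by vehicle wells and at 1 by blank wells. Combination Emax is taken as the second-highest inhibition in the matrix, and Bliss excess as the observed combination effect less EA + EB − EA·EB, with EA and EB the single-agent effects.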

Assay [2] has as its system COLO-792 (Melanoma). Described as above. In a few lines:
as §1

For assay [3], the system named is UACC-812 (Breast Carcinoma). The description is as above. The method in brief:
as §1

In assay [4] the test system is G-402 (Other Solid Carcinomas). The assay is described as above. The method in brief: as §1
In assay [5] the test system is CAL-27 (Oral Cavity Carcinoma). Described as above. In a few lines: as §1
For assay [6], the system named is CESS (Acute Myeloid Leukemia). The assay is described as above. In a few lines:
as §1

The test system of assay [7] is EW-16 (Ewing's Sarcoma). Described as above. In a few lines:
as §1

Assay [8] has as its system DU-4475 (Breast Carcinoma). Described as above. In a few lines:
as §1

The test system of assay [9] is EPLC-272H (Other Solid Carcinomas). Described as above. The method in brief: as §1
Assay [10] deals with A204 (Rhabdomyosarcoma). The description is as above. In a few lines: as §1
Assay [11] relates to AU565 (Breast Carcinoma). The description is as above. In a few lines:
as §1

The subject of assay [12] is A253 (Head and Neck Carcinoma). Described as above. The method in brief: as §1
In assay [13] the test system is RH-41 (Rhabdomyosarcoma). The description is as above. The method in brief:
as §1

Assay [14] concerns TE-10 (Esophageal Squamous Cell Carcinoma). The description is as above. The method in brief: as §1
Assay [15] deals with JVM-2 (B-Cell Non-Hodgkin's Lymphoma). The description is as above. In a few lines: as §1
In assay [16] the test system is DMS-53 (Small Cell Lung Carcinoma). Described as above. In a few lines: as §1
Assay [17] deals with huH-1 (Hepatocellular Carcinoma). Described as above. The method in brief: as §1
Assay [18] concerns LS-411N (Colorectal Carcinoma). Described as above. In a few lines:
as §1

For assay [19], the system named is A253 (Head and Neck Carcinoma). In words: Bliss excess, mean over the matrix (fraction); higher = more synergy. In a few lines: as §1
Assay [20] deals with A101D (Melanoma). In words: combination Emax (second highest fraction inhibited in the dose matrix, 72 h); higher = more inhibition; extreme values may be limits of the assay. In a few lines: as §1

As to `CN(CCO)CC[C@H](CSc1ccccc1)Nc1ccc(S(=O)(=O)NC(=O)c2ccc(N3CCC([C@@H](O)c4ccccc4-c4ccc(Cl)cc4)CC3)cc2)cc1S(=O)(=O)C(F)(F)F` [AZD4320] + C=CCn1c(=O)c2cnc(Nc3ccc(N4CCN(C)CC4)cc3)nc2n1-c1cccc(C(C)(C)O)n1 [AZD1775] (first compound max 1 µM, partner max 1 µM), the “combination Emax” value in [1] turned out to be 1; in assay [2], 0.944; in assay [3], 0.14; in assay [4], 0.491; in assay [5], 0.364; in assay [6] it was 1. Besides, the “combination Emax” value in [7] worked out at 0.904; in assay [8], 1; in [9], 0.909; in [10], 0.334; in assay [11], 0.829; in assay [12], 0.531. Besides, the “combination Emax” value in [13] is 1; in assay [14] it was 0.848; in [15], 0.981; in [16], 0.977; in assay [17] it was 0.613; in [18], 0.938. For the same compound, the Bliss excess in assay [19] stood at 0.0503.

Turning to `CN(CCO)CC[C@H](CSc1ccccc1)Nc1ccc(S(=O)(=O)NC(=O)c2ccc(N3CCC([C@@H](O)c4ccccc4-c4ccc(Cl)cc4)CC3)cc2)cc1S(=O)(=O)C(F)(F)F` [AZD4320] + CC(=O)O[C@H]1C(=O)[C@@]2(C)[C@H]([C@H](OC(=O)c3ccccc3)[C@]3(O)C[C@H](OC(=O)[C@H](O)[C@@H](NC(=O)c4ccccc4)c4ccccc4)C(C)=C1C3(C)C)[C@]1(OC(C)=O)CO[C@@H]1C[C@@H]2O [Paclitaxel] (first compound max 1 µM, 7x7, partner max 3 µM), the “combination Emax” value in assay [3] worked out at 0.566.

Take `CN(CCO)CC[C@H](CSc1ccccc1)Nc1ccc(S(=O)(=O)NC(=O)c2ccc(N3CCC([C@@H](O)c4ccccc4-c4ccc(Cl)cc4)CC3)cc2)cc1S(=O)(=O)C(F)(F)F` [AZD4320] + Nc1ccn([C@@H]2O[C@H](CO)[C@@H](O)C2(F)F)c(=O)n1 [Gemcitabine] (first compound max 1 µM, 7x7, partner max 0.3 µM): the “combination Emax” value in [3] turned out to be 0.635.

Take `COc1nnc2ccc(N3CCC(c4ccc(OCCN5CCN(C)C(=O)[C@H]5C)cc4)CC3)nn12` [AZD5153] + CN(CC[C@H](CSC1=CC=CC=C1)NC2=C(C=C(C=C2)S(=O)(=O)NC(=O)C3=CC=C(C=C3)N4CCC(CC4)[C@H](C5=CC=CC=C5C6=CC=C(C=C6)Cl)O)S(=O)(=O)C(F)(F)F)CCO [AZD4320] (first compound max 1 µM, 7x7, partner max 1 µM): the “combination Emax” value in assay [1] was 0.672; in assay [2] it was 0.856; in assay [4], 0.846; in assay [5] it was 0.608; in assay [6], 0.841; in assay [7], 0.674. In addition, the “combination Emax” value in assay [8] worked out at 1; in [9], 0.868; in assay [10], 0.464; in [11], 0.386; in assay [20] it was 0.79; in assay [12] it was 0.328. For the same compound, the “combination Emax” value in assay [13] was 1; in assay [15], 0.866; in assay [16], 0.987; in assay [17] it was 0.354; in assay [18] it was 0.978. For the same compound, the Bliss excess in assay [19] was determined as 0.0043.

For `Cc1cc2ncnn2cc1Nc1ncc2c(n1)n(C1CCOCC1)c(=O)n2C` [AZD7648] + COc1cc([C@@H]2c3cc4c(cc3[C@@H](O[C@@H]3O[C@@H]5CO[C@@H](C)O[C@H]5[C@H](O)[C@H]3O)[C@H]3COC(=O)[C@H]23)OCO4)cc(OC)c1O [Etoposide] (first compound max 10 µM, 7x7, partner max 10 µM), in [3], the “combination Emax” value came out at 0.528.

Consider `Cc1nc(Nc2ncc(C(=O)Nc3c(C)cccc3Cl)s2)cc(N2CCN(CCO)CC2)n1` [Dasatinib] + CC(=O)Nc1cccc(-n2c(=O)n(C3CC3)c(=O)c3c(Nc4ccc(I)cc4F)n(C)c(=O)c(C)c32)c1 [Trametinib] (first compound max 2 µM, 7x7, partner max 1 µM), for which the “combination Emax” value in assay [1] was found to be 0.609; in assay [2] it was 0.556; in assay [4], 0.846; in assay [5], 0.868; in [6], 0.527; in assay [7] it was 0.281. The “combination Emax” value in assay [8] was 1; in [9], 0.956; in assay [10] it was 0.512; in assay [11], 0.123; in assay [20] it was 0.688; in [12], 0.414. In addition, the “combination Emax” value in [13] amounted to 0.443; in [15] it was 0.742; in [16] it was 0.334; in assay [17] it was 0.305; in assay [18], 0.834. Moreover, in assay [19], the Bliss excess is -0.189.

With `COc1cc2ncnc(Nc3ccc(F)c(Cl)c3)c2cc1OCCCN1CCOCC1` [Gefitinib] + CC(C)n1c(=O)n(C)c2cnc3cc(F)c(-c4ccc(OCCCN5CCCCC5)nc4)cc3c21 [AZD1390] (first compound max 10 µM, 7x7, partner max 0.3 µM), the “combination Emax” value in [1] was 0.353; in [2] it was 0.251; in [3], 0.24; in [4] it was 0.214; in assay [5], 0.689; in [6], 0.195. Further, the “combination Emax” value turned out to be 0.176 in assay [7]; 0.157 in [8]; 0.565 in [9]; 0.139 in assay [10]; 0.737 in assay [11]; 0.267 in assay [20]. Also, the “combination Emax” value in assay [12] was 0.196; in assay [13] it was 0.147; in assay [15], 0.528; in [16], 0.147; in assay [17], 0.134; in assay [18] it was 0.0453. The Bliss excess in [19] was -0.0551.

Source of the values: the supplement of paper PMC11061612.
